One series has as its target T1, human PARP1 (Homo sapiens, UniProt P09874).
T1 construct: purchased Trevigen
As to the kind of experiment: PARP inhibitor assay (HT Fluorescent Homogeneous PARP Inhibition Assay Kit). Format: biochemical. The settings on record: for L = PARP inhibition: score. An outline of the steps: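 Human PARP1 with NAD and activated DNA, compounds at 10 μM final, 30 min at room temperature in dark. Resazurin/diaphorase cycling mix then added for 1 hr in dark before stop buffer; fluorescent homogeneous kit read-out.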

Series [1] in a line: Summary score for characterization of 38 core set hits. As to conditions: for D = Triple resistant: 2-point score, multiplex resistance (cadmium, MMS, H2O2); for S = Sum of Negative scores: human; for C = H2O2- & Cd-resistant: score, resistance to both H2O2 and cadmium. An outline of the steps:
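Composite score across characterizations of hits from an H2O2-resistance screen. Multiplex resistance, FOXO3/NRF2 activation and mTOR down-regulation each earn 2 points. C. elegans lifespan extension over 4–6 trials scores 0–2, and DNA damage or toxicity in human cells subtracts a point.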

Series [2] has as its system WI-38 cells. As to conditions: for No H2O2 stress treatment, at 10 uM (fold change): normalized ATP measurement; for Assay 1: H2O2-resistant: YES/NO, if NO, possibly due to repeated freezing/thawing of stocks.
Series [3] deals with WI-38 cells. As to the kind of experiment: Propidium iodide (PI) cell-death imaging upon H2O2 stress. In kind it is cell-based, human. As to conditions: for Assay 7: H2O2-resistant, at 10 uM, validated by propidium iodide (PI) cell-death imaging: w/H2O2, 3 hrs/4 hrs/5 hrs, YES/NO; for cytotoxicity at 10 µM: Homo sapiens, WI-38.
The next series deals with NRF2. Description: in vitro. Format: cell-based, human.
The next series concerns LC3A/B puncta. Description: Autophagy induction analysis (LC3A/B puncta immuno-staining). In kind it is cell-based, human. The gist of the method: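 WI-38 cells were treated with compounds for 24 hrs, then immunostained for LC3A/B (overnight, 4° C) with DAPI counterstain and imaged by high-content microscopy. Experiment 1 used total puncta intensity. Experiment 2 used LAMP2-colocalized (lysosomal) puncta. Intensity was normalized to nuclei count.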

[4] abbreviates: WI-38 cells, 10 μM, (*) = compromised ability to protect cells from H2O2, could be due to stability issue.
Where [5] appears, read: asterisks indicate the loss of the ability to protect cells from H2O2 over time.
The mark [6] stands for this setting: derived from dose response curves, 0.6-20 uM, H2O2-resistance of WI-38 cells.
The mark [7] stands for this setting: read-out: Est. ED50, dose response 0.6-20 μM, H2O2-resistance.
[8] abbreviates: H2O2 3 hrs, 10 uM, n = 6, negative control 5.44% ± 0.79%, read-out: Percentage of propidium iodide-positive dead cells (under H2O2 stress treatment), 3 hrs.
The mark [9] stands for this setting: pre-treatment at 10 uM, 3.5 hours of H2O2, DMSO control 27.4% ± 6.5%, */**/*** = reduced by one/two/three standard deviations, read-out: Percentage of propidium iodide-positive dead cells (under H2O2 stress treatment), at 10 uM.
Setting [10] is: 10 uM, with H2O2, NRF2 knockdown in WI-38 cells, YES = resistance reduced by at least 50%, partial = 25% to 50%.

Structures are written as SMILES. Where two headings read alike, the source gives them in different places.

T1 sequence (P09874 whole entry): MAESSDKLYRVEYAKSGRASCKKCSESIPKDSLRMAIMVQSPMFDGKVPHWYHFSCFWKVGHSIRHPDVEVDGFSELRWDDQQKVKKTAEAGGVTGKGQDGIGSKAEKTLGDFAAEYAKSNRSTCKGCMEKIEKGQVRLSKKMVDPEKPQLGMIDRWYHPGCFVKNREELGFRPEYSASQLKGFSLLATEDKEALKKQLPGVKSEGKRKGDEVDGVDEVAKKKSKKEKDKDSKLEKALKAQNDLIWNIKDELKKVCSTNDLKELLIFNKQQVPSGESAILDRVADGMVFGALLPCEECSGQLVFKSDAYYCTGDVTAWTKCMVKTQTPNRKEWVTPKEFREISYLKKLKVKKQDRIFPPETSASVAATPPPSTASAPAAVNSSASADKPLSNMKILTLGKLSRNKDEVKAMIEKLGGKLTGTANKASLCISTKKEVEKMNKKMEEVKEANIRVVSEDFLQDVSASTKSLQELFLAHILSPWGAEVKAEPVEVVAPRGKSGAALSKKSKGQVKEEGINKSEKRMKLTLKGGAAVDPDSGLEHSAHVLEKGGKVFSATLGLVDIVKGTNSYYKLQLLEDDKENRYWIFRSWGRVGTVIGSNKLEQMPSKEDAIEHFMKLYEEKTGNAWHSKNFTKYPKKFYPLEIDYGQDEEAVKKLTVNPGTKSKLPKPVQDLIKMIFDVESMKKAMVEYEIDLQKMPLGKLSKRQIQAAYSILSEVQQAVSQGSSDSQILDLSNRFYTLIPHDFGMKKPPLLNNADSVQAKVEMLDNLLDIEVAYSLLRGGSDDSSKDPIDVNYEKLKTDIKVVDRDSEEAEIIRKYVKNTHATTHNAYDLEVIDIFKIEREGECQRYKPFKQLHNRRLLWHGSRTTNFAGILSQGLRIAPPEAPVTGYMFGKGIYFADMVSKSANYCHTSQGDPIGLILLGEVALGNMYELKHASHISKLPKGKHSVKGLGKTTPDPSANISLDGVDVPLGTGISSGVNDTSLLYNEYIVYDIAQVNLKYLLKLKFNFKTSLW

As for `O=C1NCCCc2cc(Cl)sc21` [O1], the “Inhibition of PARP1” value at human PARP1 (10 μM, in vitro) is listed as “inhibitors of PARP1”. For the same compound, the “L = PARP inhibition” value on human PARP1 came out at 1. For the same compound, the “D = Triple resistant” value in series [1] is listed as 0. Further, the “S = Sum of Negative scores” value in series [1] is listed as 0. Further, the “C = H2O2- & Cd-resistant” value in series [1] came out at 1. Besides, the H2O2-resistant result with WI-38 cells [2] (setting [4]) and in the series on WI-38 cells [2] (setting [5]) was “YES” each time. In addition, the “No H2O2 stress treatment, at 10 uM (fold change)” value with WI-38 cells [2] (WI-38 cells) is recorded as 0.92 fold change. Further, in the series on WI-38 cells [2], the “Assay 1: H2O2-resistant” value is recorded as “YES”. For the same compound, the EC50 with WI-38 cells [2] (setting [6]) and in the series on WI-38 cells [2] (setting [7]) was 13.2 µM in each case. For the same compound, the “Assay 7: H2O2-resistant, at 10 uM, validated by propidium iodide (PI) cell-death imaging” value in the series with WI-38 cells [3] (10 uM) was “YES”. For the same compound, the cytotoxicity at 10 µM in the series on WI-38 cells [3] (setting [8]) came to 5.8%; in the series on WI-38 cells [3] (setting [9]), 20.4%. In addition, in the series with NRF2 (10 uM, experiment 1 (1st), with H2O2), the “NRF2-dependency for H2O2-resistance, at 10 uM - with H2O2, 1st experiment” value is reported as 1st, partial;. Also, in the series on NRF2 (10 uM, experiment 2 (2nd), with H2O2), the “NRF2-dependency for H2O2-resistance, at 10 uM - with H2O2, 2nd experiment” value is 2nd, partial. In addition, the “NRF2-dependency for H2O2-resistance, 1st experiment” value in the series with NRF2 (setting [10]) is on record as “partial;”. Moreover, the “NRF2-dependency for H2O2-resistance, 2nd experiment” value with NRF2 (setting [10]) is “partial”. The “Assay 17: NRF2-dependency for H2O2-resistance” value in the series on NRF2 (10 uM, YES/NO) is “YES”. Further, in the series with NRF2 (at least 2 of 3 independent experiments), the “NRF2-dependency of H2O2-resistance (NRF2 siRNA knockdown)” value is given as “significantly attenuate”. Further, the “J = NRF2-dependency for H2O2-resistance” value in the series on NRF2 (score) and with NRF2 (summary score) was 1 in each case. Further, the “H = Potential Autophagy Induction” value in the series with LC3A/B puncta (score) and in the series with LC3A/B puncta (summary score) was 0 each time.
In the case of `CC1C(=O)C(C)C(c2cc(Cl)ccc2O)NC1c1cc(Cl)ccc1O` (stereo not shown) [O6], at human PARP1, the “L = PARP inhibition” value is given as 0. Also, in series [1], the “D = Triple resistant” value came out at 0. Further, in series [1], the “S = Sum of Negative scores” value came to 0. In addition, in series [1], the “C = H2O2- & Cd-resistant” value came to 1. In addition, the H2O2-resistant entry in the series on WI-38 cells [2] (setting [4]) and in the series with WI-38 cells [2] (setting [5]) was “YES” throughout. The “No H2O2 stress treatment, at 10 uM (fold change)” value in the series with WI-38 cells [2] (WI-38 cells) worked out at 1.07 fold change. Also, the “Assay 1: H2O2-resistant” value with WI-38 cells [2] is on record as “YES”. For the same compound, the EC50 in the series with WI-38 cells [2] (setting [6]) and in the series with WI-38 cells [2] (setting [7]) was 9.8 µM throughout. Also, the “Assay 7: H2O2-resistant, at 10 uM, validated by propidium iodide (PI) cell-death imaging” value in the series on WI-38 cells [3] (10 uM) is “YES”. The cytotoxicity at 10 µM is 0.8% in the series on WI-38 cells [3] (setting [8]); 4.92% in the series on WI-38 cells [3] (H2O2 4 hrs, 10 uM, n = 6, negative control 16.81% ± 1.42%, read-out: Percentage of propidium iodide-positive dead cells (under H2O2 stress treatment), 4 hrs); 9.82% with WI-38 cells [3] (H2O2 5 hrs, 10 uM, n = 6, negative control 22.50% ± 1.53%, read-out: Percentage of propidium iodide-positive dead cells (under H2O2 stress treatment), 5 hrs); 16.8% in the series with WI-38 cells [3] (setting [9]). Further, the “J = NRF2-dependency for H2O2-resistance” value in the series with NRF2 (score) and in the series on NRF2 (summary score) was 0 in each case. In addition, the “H = Potential Autophagy Induction” value with LC3A/B puncta (score) and in the series with LC3A/B puncta (summary score) was 0 in each case.
